Data on 13 compounds can be found in US7968584B2, “Substituted arylpyrazoles” (Pfizer Inc., priority 2005, dated 2011).

SMILES strings stand for the structures.

This test relates to Ctenocephalides felis. Nature of the test: flea membrane feed test. To be noted: in vitro, adult cat fleas fed 2 hours through parafilm membrane on citrated dog blood containing compound, percentage killed recorded after overnight storage, dose responses n=5; for EC80: Ctenocephalides felis, read-out: Flea feed ED80 results. On the procedure: The flea membrane feed test is used to measure the biological activities of the compounds claimed. The assay involves in vitro testing against Ctenocephalides felis conducted according to the following general procedure.
Fleas are cultured in vitro using dog blood. 25-30 adult Ctenocephalides felis (cat flea) were collected and placed in a test chamber (50 ml polystyrene tube with fine nylon mesh sealing the end). Citrated dog blood was prepared by adding aqueous sodium citrate solution (10 ml, 20% w/v, 20 g sodium citrate in 100 ml water) to dog blood (250 ml). Test compounds were dissolved in dimethylsulfoxide to give a working stock solution of 4 mg/ml. The stock solution (12.5 μl) was added to citrated dog blood (5 ml) to give an initial test concentration of 10 μg/ml. For testing at 30 µg/ml, working stock solutions of 12 mg/ml were prepared.
Citrated dog blood containing the test compound (5 ml, 100 μg/ml) was placed into a plastic Petri dish lid, which was kept at 37° C. on a heated pad. Parafilm was stretched over the open top to form a tight membrane for the fleas to feed through. The test chamber containing the fleas was placed carefully onto the parafilm membrane and the fleas commenced feeding.
The fleas were allowed to feed for 2 hours and the test chambers were then removed and stored overnight at room temperature.
The fleas were observed and the percentage of fleas killed recorded. Compounds were initially tested at 100 μg/ml, wherefrom relevant dose responses (100, 30, 10, 3, 1, 0.3, 0.1 μg/ml) were conducted and repeated n=5. Data was plotted to generate ED80, ED90 & ED95 values.

`CS(=O)(=O)C1(c2c(C#N)nn(-c3c(Cl)cc(S(F)(F)(F)(F)F)cc3Cl)c2N)CC1` [Example 1, 5-amino-1-[2,6-dichloro-4-pentafluorothiophenyl]-4-[1-(methylsulfonyl)cyclopropyl]-1H-pyrazole-3-carbonitrile]: the EC80 was not above 1 mg/L.
Still for that read-out and setting: with `N#Cc1nn(-c2c(Cl)cc(C(F)(F)F)cc2Cl)c(N)c1C1(C(N)=O)CC1` [Example 2, 1-{5-amino-3-cyano-1-[2,6-dichloro-4-(trifluoromethyl)phenyl]-1H-pyrazol-4-yl}cyclopropanecarboxamide] the figure was not above 1 mg/L.
On to `N#Cc1nn(-c2c(Cl)cc(S(F)(F)(F)(F)F)cc2Cl)c(N)c1C1(C#N)CC1` [Example 11, 5-amino-4-(1-cyanocyclopropyl)-1-[2,6-dichloro-4-pentafluorothiophenyl]-1H-pyrazole-3-carbonitrile], for which the “Flea feed ED80 results” value is listed as “≦1 μg/ml”.
Regarding `N#Cc1nn(-c2c(Cl)cc(S(F)(F)(F)(F)F)cc2Cl)c(NCCF)c1C1(C(N)=O)CC1` [Example 16, 1-{3-cyano-1-[2,6-dichloro-4-pentafluorothiophenyl]-5-[(2-fluoroethyl)amino]-1H-pyrazol-4-yl}cyclopropanecarboxamide], the EC80 is not above 1 mg/L.
In the case of `N#Cc1nn(-c2c(Cl)cc(S(F)(F)(F)(F)F)cc2Cl)c(N)c1C1(C(N)=O)CC1(Cl)Cl` (stereo not shown) [Example 18, 1-{5-amino-3-cyano-1-[2,6-dichloro-4-pentafluorothiophenyl]-1H-pyrazol-4-yl}-2,2-dichlorocyclopropanecarboxamide], the EC80 was not above 1 mg/L.
Consider `N#Cc1nn(-c2c(Cl)cc(S(F)(F)(F)(F)F)cc2Cl)c(NCC2CC2)c1C1(C(=O)NCc2ccncc2)CC1` [Example 19, 1-{3-cyano-5-[(cyclopropylmethyl)amino]-1-[2,6-dichloro-4-pentafluorothiophenyl]-1H-pyrazol-4-yl}-N-(pyridin-4-ylmethyl)cyclopropanecarboxamide], for which the EC80 is not above 1 mg/L.
In the case of `CC(C)OC(=O)Nc1c(C2(C(N)=O)CC2)c(C#N)nn1-c1c(Cl)cc(S(F)(F)(F)(F)F)cc1Cl` [Example 20, isopropyl {4-[1-(aminocarbonyl)cyclopropyl]-3-cyano-1-[2,6-dichloro-4-pentafluorothiophenyl]-1H-pyrazol-5-yl}carbamate], the EC80 is not above 1 mg/L.
As for `N#Cc1nn(-c2c(Cl)cc(S(F)(F)(F)(F)F)cc2Cl)c(NC(=O)OCC2(CF)CC2)c1C1(C(N)=O)CC1` [Example 27, [1-(fluoromethyl)cyclopropyl]methyl {4-[1-(aminocarbonyl)cyclopropyl]-3-cyano-1-[2,6-dichloro-4-pentafluorothiophenyl]-1H-pyrazol-5-yl}carbamate], the EC80 is not above 1 mg/L.
Take `N#Cc1nn(-c2c(Cl)cc(S(F)(F)(F)(F)F)cc2Cl)c(NCCC(N)=O)c1C1(C(N)=O)CC1` [Example 32, N˜3˜-{4-[1-(aminocarbonyl)cyclopropyl]-3-cyano-1-[2,6-dichloro-4-pentafluorothiophenyl]-1H-pyrazol-5-yl}-beta-alaninamide]: the “Flea feed ED80 results” value was “≦1 μg/ml”.
Take `CCOC(=O)Nc1c(C2(C(N)=O)CC2)c(C#N)nn1-c1c(Cl)cc(OC(F)(F)F)cc1Cl` [Example 37, ethyl {4-[1-(aminocarbonyl)cyclopropyl]-3-cyano-1-[2,6-dichloro-4-(trifluoromethoxy)phenyl]-1H-pyrazol-5-yl}carbamate]: the EC80 was not above 1 mg/L.
For the compound `N#Cc1nn(-c2c(Cl)cc(S(F)(F)(F)(F)F)cc2Cl)c(NCC2CC2)c1C1(C(=O)NCc2ccccn2)CC1` [Example 45, 1-{3-cyano-5-[(cyclopropylmethyl)amino]-1-[2,6-dichloro-4-pentafluorothiophenyl]-1H-pyrazol-4-yl}-N-(pyridin-2-ylmethyl)cyclopropanecarboxamide], the “Flea feed ED80 results” value was “≦1 μg/ml”.
For the compound `N#Cc1nn(-c2c(Cl)cc(S(F)(F)(F)(F)F)cc2Cl)c(Cl)c1C1(C(N)=O)CC1` [Example 86, 1-{5-chloro-3-cyano-1-[2,6-dichloro-4-pentafluorothiophenyl]-1H-pyrazol-4-yl}cyclopropanecarboxamide], the EC80 was not above 1 mg/L.
In the case of `N#Cc1nn(-c2c(Cl)cc(S(F)(F)(F)(F)F)cc2Cl)c(CNC(=O)OCC2CC2)c1C1(C(N)=O)CC1` [Example 101, cyclopropylmethyl {4-[1-(aminocarbonyl)cyclopropyl]-3-cyano-1-[2,6-dichloro-4-pentafluorothiophenyl]-1H-pyrazol-5-yl}methylcarbamate], the “Flea feed ED80 results” value is reported as “≦1 μg/ml”.
